Test results as given in patent publication US5342834A, “Method for androgen supplementation” (priority 1992, dated 1994).
“Also recorded” adds a separate entry of the source.

How the values were obtained:
[1] = Metabolism (5α reduction) of 3H-androgens by rat ventral prostate homogenate; type: in vitro ADME; details: for metabolism / 5α reduction in prostate (in words): prostate homogenate; for metabolised at 0.5 h: rat, ventral prostate homogenate, ventral prostate, androgen = 100%, 30 min incubation, read-out: Conversion of 5α reduced metabolites: 5α-dihydro-steroid
Procedure: To study metabolism in rat prostate, ventral prostates (1 g) were collected in ice-cold saline. All subsequent operations were carried out at 0°-4° C. The tissues were washed three times with homogenizing buffer (50 mM tris, 1.5 mM EDTA, 1 mM dithiothreitol and 10% glycerol, pH 7.5) and then homogenized in 4 vol. of the same buffer using an Ultra-turrax at a setting of 6. The prostates were given three 10 seconds bursts with intermittent cooling. The resulting homogenate was passed through four layers of cheesecloth and the filtrate was collected.
Incubation mixtures consisted of 50 nmol of unlabeled steroid, 40,000 CPM of the corresponding tritiated steroid and 1 μmol of NADPH in 0.2 ml of the buffer. The mixture was equilibrated for 10 min at 37° C. Reaction was started by adding 0.8 ml of homogenate (5.3 mg/ml protein). After 30 min of incubation, the mixture was cochromatographed with authentic steroids selected as possible metabolites.

[2] = Metabolism (decrease of steroid level) in incubation with rat liver cytosol; type: in vitro ADME; details: for remaining at 2 h: 2h incubation, read-out: steroid remaining unmetabolized / recovered
Procedure: (§1) To prepare rat liver microsomes and cytosol, thawed livers were homogenized in 4 vol. of TED buffer (10mM Tricine, 1.5 mM EDTA, 1 mM dithiothreitol, pH 7.4) using a glass homogenizer and a loosefitting Teflon piston for nine strokes with intermittent cooling. This and all subsequent steps were performed at 4° C. The homogenate was spun at 13000×g for 30 min in a Sorvall refrigerated centrifuge. The supernatant fraction was recentrifuged at 13000×g for another 30 min. The resulting supernatant fraction (13K supernatant) was centrifuged at 105,000×g using a Beckman Ultracentrifuge (Model L) for 60 min. The 105K supernatant (cytosol) was saved. The microsomal pellet was resuspended in TED buffer, and spun down again at 105,000×g. The resulting pellet is known as the 105K pellet of the microsome fraction (or "microsome") .
(§2) Incubation mixtures consisted of 52 nmol of unlabeled steroid (T, 7MNT or 19NT), approximately 40,000 CPM of the corresponding tritiated steroid and 5 umol of NADPH in 0.2 ml TED buffer (pH 7.4). This was incubated for 10 min at 37° C. in a constant temperature water bath. Reaction was initiated by the addition of 0.8 ml of either 13K supernatant, microsomes or cytosol, containing 7.05, 0.62 or 5.64 mg/ml of protein, respectively. Incubations were quenched with 2 ml of ethyl acetate, vortexed briefly, and frozen in a dry ice-alcohol bath. The ethyl acetate was separated from the frozen aqueous phase. Extraction was performed again in the same way. The combined organic phase was evaporated and the remaining steroids were analyzed.
The procedure used for the cytosol preparations was the same as that for microsomes, except that incubations were carried out for 90 min.
(§3) For isolation of radioactive metabolites, the procedure was the same as for unlabeled metabolites, except that each tube contained 50,000 CPM of ^3 H-labeled 7MNT.
(§4) In this series of experiments, the decreases in the levels of testosterone,19-nortestosterone, and 7MNT were followed over a two-hour period of incubation with microsomal or cytosolic fractions of rat liver. […] Catabolism of 19NT was maximum at 30 min, with no further change beyond that, leaving a persistent unmetabolized residue of about 20 percent of the added steroid. After 30 min of incubation, 85 percent of the 7MNT remained unaltered; forty percent of the 7MNT was recovered after 2h.

[3] = Metabolism (5α reduction) of 3H-androgens by rat epididymis; type: in vitro ADME; details: for metabolised: rat, epididymis homogenate, pH 7.4, androgen = 100%, read-out: Conversion of 5α reduced metabolites: Diols
Procedure: The metabolism of T, 19NT and 7MNT by rat epididymis was also studied. Collected epididymides were processed as described for prostate. Incubations were performed in Tricine-buffer pH 7.4 as used for liver incubations. Thin layer chromatography of metabolic mixtures and standards was performed as described for prostate preparations.

[4] = Metabolism by rat liver 13K supernatant fraction; type: in vitro ADME; details: 30 min, 37° C., system enriched with NADPH
Procedure: as §1
Incubation mixtures consisted of 52 nmol of unlabeled steroid (T, 7MNT or 19NT), approximately 40,000 CPM of the corresponding tritiated steroid and 5 umol of NADPH in 0.2 ml TED buffer (pH 7.4). This was incubated for 10 min at 37° C. in a constant temperature water bath. Reaction was initiated by the addition of 0.8 ml of either 13K supernatant, microsomes or cytosol, containing 7.05, 0.62 or 5.64 mg/ml of protein, respectively. […] The combined organic phase was evaporated and the remaining steroids were analyzed. […]

[5] = Non-androgenic (e.g. progestational) activity
[6] = Metabolism (decrease of steroid level) in incubation with rat liver microsomes; type: in vitro ADME
Procedure: as §1, §2
In preparation for the isolation and identification of unlabelled steroid metabolites in the microsome preparations, 360 μg of 7MNT were dispensed into 24 tubes in parallel with identical tubes containing ^3 H-labeled 7MNT to be used as marker steroid. The mixtures were incubated for 60 min at 37° C., extracted twice with 2 ml of ethyl acetate, taken to dryness, redissolved in a mixture of dichloromethane/methanol (1:1, v/v) and quantitatively applied to silica gel coated TLC plates along with synthetically prepared suspected metabolites of radioactive 7MNT in a parallel lane. The plates were developed with chloroform/methanol (95:5, v/v). Spots corresponding to the radioactive marked spots were eluted with ethyl acetate and taken to dryness.
as §3, §4

[7] = background statement; cited from earlier work

Structure (SMILES)	androgen potency (in words) (Androgenic potency)	metabolism / 5α reduction in prostate (in words) [1]	metabolism in cytosol (in words) [2]	metabolism / 5α reduction in epididymis (in words) [3]	metabolism by 13K supernatant (in words) [4]	non-androgenic activity (in words) [5]	metabolism in microsomes (in words) [6]	remaining at 0.5 h ([6]; after 30 min of incubation, read-out: steroid remaining unaltered)	steroid recovered ([6]; after 2h)	metabolised at 0.5 h [1]	remaining at 2 h [2]	metabolised [3]	persistent unmetabolized residue of the added steroid ([6]; beyond 30 min of two-hour incubation)	time of maximum catabolism ([6]; two-hour incubation)	androgen potency versus testosterone (in words) [7]	time before which steroid was completely metabolized ([6]; earliest aliquot taken at 15 min)
C[C@@H]1CC2=CC(=O)CC[C@@H]2[C@H]2CC[C@]3(C)[C@@H](O)CC[C@H]3[C@@H]21 [7MNT, 7α-methyl-19-nortestosterone]	high potency	substantially no 5α-dihydro product was formed in either tissue; also recorded: remained unmetabolized; also recorded: did not reduce or otherwise metabolize 7MNT; also recorded: not converted to the 5α-dihydro product	Half of the starting 7MNT was recovered after 2h incubation; also recorded: generated at least one metabolite that was more polar than the parent compound	substantially no 5α-dihydro product was formed in either tissue; also recorded: epididymis did not reduce or otherwise metabolize 7MNT	relatively resistant to metabolism under these incubation conditions; also recorded: Two metabolites, tentatively identified as 7α-methyl-5β-estrane-3, 17β-diol and 7α-methyl-estr-4-ene-3, 17-dione were found; also recorded: A minor highly polar metabolite was also observed	lack of significant non-androgenic activity	After 30 min of incubation, most of the 7MNT was retrieved unaltered; also recorded: Two significant 7α-methylated metabolites were observed: a less polar one representing the 3,17-dione, and a more polar one in the region of the diols or triols; also recorded: An additional quantitatively minor polar metabolite was also detected	85%	forty	–	–	–	–	–	–	–
C[C@]12CC[C@H]3[C@@H](CCC4=CC(=O)CC[C@@H]43)[C@@H]1CC[C@@H]2O [19NT, 19-nortestosterone]	–	metabolized to the reduced product more slowly than testosterone	still slower	converted to their respective reduced A ring metabolites; also recorded: metabolized more slowly than T	–	–	qualitatively similar to that of T, though slower	–	–	22%	40%	57%	about 20%	30 min	–	–
C[C@]12CCC(=O)C[C@@H]1CC[C@@H]1[C@@H]2CC[C@]2(C)[C@@H](O)CC[C@@H]12 [DHT, 5α-dihydrotestosterone]	–	–	–	–	–	–	–	–	–	–	–	–	–	–	much more potent androgen than testosterone	–
C[C@]12CC[C@H]3[C@@H](CCC4=CC(=O)CC[C@@]43C)[C@@H]1CC[C@@H]2O [T, testosterone]	–	nearly half of the added T was reduced to 5α-DHT	–	converted to their respective reduced A ring metabolites	–	–	completely metabolized by the microsomes before the earliest aliquot was taken	–	–	48%	~12%	86%	–	–	–	< 15 min
